This assay deals with BDF1 mice, Adenocarcinoma 755 s.c., tumor weight T/C. Briefly: NCI In Vivo Anticancer Drug Screen. Data for tumor model Adenocarcinoma 755 (subcutaneous) in B6D2F1 (BDF1) mice. Particulars: endpoint: mean tumor weight, schedule: Q01DX011 (ip), vehicle: carboxymethylcellulose (CMC), higher = larger tumour. An outline of the steps: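 Values express treated (T) relative to vehicle-dosed control (C) animals, based on survival or tumour size measured after compound treatment of mice bearing a transplanted tumour.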

Several values for one entry are separate records, joined by “and”; a condition that tells them apart may be missing. Equal values may be shown once.

In the case of `Nc1nc(=S)c2ncn(C3OC(COC(=O)c4ccc(Cl)cc4)C(OC(=O)c4ccc(Cl)cc4)C3OC(=O)c3ccc(Cl)cc3)c2[nH]1` (stereo not drawn), the T/C is, setting by setting: (dose: 0.88 mg/kg/injection) 94 % of control; (dose: 1.75 mg/kg/injection) 65 % of control; (dose: 3.5 mg/kg/injection) 102 % of control; (dose: 6.0 mg/kg/injection) 72 % of control; (dose: 10.0 mg/kg/injection) 6 % of control; (dose: 12.0 mg/kg/injection) 23 % of control. Moreover, the T/C (dose: 16.0 mg/kg/injection) is 1 % of control; the T/C (dose: 50.0 mg/kg/injection) was 2 % of control and 3 % of control.

By T/C is commonly meant the result in the treated group divided by that in the control group, in per cent.

(Values after PubChem BioAssay AID180 (DTP/NCI, 2004).)
